The values that follow come from ChEMBL document CHEMBL5620430, “Design, synthesis and biological evaluation of indazole derivatives as selective covalent inhibitors of FGFR4 in wild-type and gatekeeper mutants” (Eur J Med Chem, 2023).

The source made the active and inactive calls. The rule behind the calls is not given here.

Data set [1] addresses Fibroblast growth factor receptor 4 (Homo sapiens, UniProt P22455). The data set is described as follows: Inhibition of FGFR4 in human Huh-7 cells assessed as inhibition of ERK1/2 phosphorylation incubated for 2 hrs followed by compound washout and measured upto 8 hrs by Western blot analysis. The class given is cell-based.
Data set [2] is described as follows: Toxicity in NSG mouse assessed as effect on spleen at 20 to 40 mg/kg by H and E staining based analysis. The class given is organism-based. As to conditions: in vivo, dose 20-40 mg/kg.
Data set [3] is described as follows: Half life in Sprague-Dawley rat at 2 mg/kg, iv by LC-MS/MS analysis. The class given is ADME, organism-based. Conditions: in vivo.
A further data set concerns BaF3. Kind of data set: cells. Conditions: Mus musculus.
In data set [4] the target is Fibroblast growth factor receptor 3 (Homo sapiens, UniProt P22607).
Chain of Fibroblast growth factor receptor 3 (P22607 whole entry): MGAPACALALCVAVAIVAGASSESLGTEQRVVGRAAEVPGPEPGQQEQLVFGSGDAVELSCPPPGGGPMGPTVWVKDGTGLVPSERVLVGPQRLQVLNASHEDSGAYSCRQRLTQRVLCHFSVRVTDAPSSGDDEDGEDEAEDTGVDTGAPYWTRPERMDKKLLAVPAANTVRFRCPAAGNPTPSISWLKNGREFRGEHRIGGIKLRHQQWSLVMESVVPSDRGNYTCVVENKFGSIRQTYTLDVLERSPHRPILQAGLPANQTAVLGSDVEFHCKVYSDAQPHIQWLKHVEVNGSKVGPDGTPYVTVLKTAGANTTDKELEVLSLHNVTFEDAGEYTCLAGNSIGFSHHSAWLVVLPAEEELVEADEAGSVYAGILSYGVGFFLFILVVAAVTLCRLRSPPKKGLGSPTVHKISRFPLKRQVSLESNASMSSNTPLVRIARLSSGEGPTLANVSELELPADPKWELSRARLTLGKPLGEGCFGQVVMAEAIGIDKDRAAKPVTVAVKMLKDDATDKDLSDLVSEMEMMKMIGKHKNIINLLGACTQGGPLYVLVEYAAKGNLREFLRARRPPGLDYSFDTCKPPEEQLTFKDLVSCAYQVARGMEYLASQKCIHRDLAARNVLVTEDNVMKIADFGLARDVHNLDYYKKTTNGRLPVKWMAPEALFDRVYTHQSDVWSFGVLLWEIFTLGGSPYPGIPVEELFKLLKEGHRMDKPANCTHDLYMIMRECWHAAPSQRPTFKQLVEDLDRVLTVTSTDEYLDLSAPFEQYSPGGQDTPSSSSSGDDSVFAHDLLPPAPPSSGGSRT
Description: Inhibition of FGFR3 (unknown origin)
The target of data set [5] is Fibroblast growth factor receptor 1 (Homo sapiens, UniProt P11362).
Chain of Fibroblast growth factor receptor 1 (P11362 whole entry): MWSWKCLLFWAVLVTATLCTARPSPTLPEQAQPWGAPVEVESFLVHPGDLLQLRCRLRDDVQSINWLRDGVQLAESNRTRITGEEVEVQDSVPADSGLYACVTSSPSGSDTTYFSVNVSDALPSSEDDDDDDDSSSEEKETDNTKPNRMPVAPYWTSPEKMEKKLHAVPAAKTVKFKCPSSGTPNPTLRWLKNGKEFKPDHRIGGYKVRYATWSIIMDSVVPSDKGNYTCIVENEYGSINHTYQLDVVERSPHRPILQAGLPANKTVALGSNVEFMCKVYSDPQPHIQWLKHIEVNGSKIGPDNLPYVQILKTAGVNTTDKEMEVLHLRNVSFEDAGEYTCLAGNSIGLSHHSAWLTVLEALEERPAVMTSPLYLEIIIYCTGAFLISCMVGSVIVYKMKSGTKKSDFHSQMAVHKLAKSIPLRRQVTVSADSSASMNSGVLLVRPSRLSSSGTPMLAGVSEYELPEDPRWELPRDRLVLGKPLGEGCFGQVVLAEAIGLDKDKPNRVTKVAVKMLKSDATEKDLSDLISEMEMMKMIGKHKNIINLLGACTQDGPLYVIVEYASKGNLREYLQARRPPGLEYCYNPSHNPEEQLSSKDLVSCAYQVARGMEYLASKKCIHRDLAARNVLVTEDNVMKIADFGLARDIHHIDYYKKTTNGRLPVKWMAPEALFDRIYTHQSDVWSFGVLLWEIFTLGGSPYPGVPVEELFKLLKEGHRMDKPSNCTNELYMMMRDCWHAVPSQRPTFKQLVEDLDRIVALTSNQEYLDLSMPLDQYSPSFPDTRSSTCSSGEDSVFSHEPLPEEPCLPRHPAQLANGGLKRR
Description: Inhibition of FGFR1 (unknown origin)
The test system of a further data set is Hep 3B2. Kind of data set: Antiproliferative activity against human Hep3B cells measured after 24 to 48 hrs by MTT assay. The class given is functional, cell-based.
The nature of data set [6]: Toxicity in NSG mouse assessed as effect on heart at 20 to 40 mg/kg by H and E staining based analysis. The class given is organism-based. Conditions: in vivo, dose 20-40 mg/kg.
Data set [7] is described as follows: Tmax in Sprague-Dawley rat at 2 mg/kg, iv by LC-MS/MS analysis. The class given is ADME, organism-based. Conditions: in vivo.
The nature of data set [8]: Toxicity in NSG mouse assessed as effect on kidney at 20 to 40 mg/kg by H and E staining based analysis. As to conditions: in vivo, dose 20-40 mg/kg. The class given is organism-based.
A further data set relates to HepG2. The data set is described as follows: Antiproliferative activity against human HepG2 cells measured after 24 to 48 hrs by MTT assay. The class given is functional, cell-based.
Data set [9] is described as follows: Toxicity in NSG mouse assessed as effect on body weight at 20 to 40 mg/kg […]. The class given is organism-based. Conditions: in vivo, dose 20-40 mg/kg.
Data set [10] is described as follows: AUC (0 to t) in Sprague-Dawley rat at 10 mg/kg, po by LC-MS/MS analysis. The class given is ADME, organism-based. As to conditions: in vivo.
Data set [11] is described as follows: Toxicity in NSG mouse assessed as effect on ALT level at 20 to 40 mg/kg […]. Conditions: in vivo, dose 20-40 mg/kg. The class given is organism-based.
The subject of a further data set is Huh-7. Kind of data set: Induction of apoptosis in human Huh-7 cells assessed as late apoptotic cells at 2 uM measured after 48 hrs by AnnexinV-FITC/PI staining based flow cytometry (reference value: 2.55%). The class given is functional.
A short description of data set [12]: Tmax in Sprague-Dawley rat at 10 mg/kg, po by LC-MS/MS analysis. The class given is ADME, organism-based. As to conditions: in vivo.

Chain of Fibroblast growth factor receptor 4 (P22455 22-802 limits assumed): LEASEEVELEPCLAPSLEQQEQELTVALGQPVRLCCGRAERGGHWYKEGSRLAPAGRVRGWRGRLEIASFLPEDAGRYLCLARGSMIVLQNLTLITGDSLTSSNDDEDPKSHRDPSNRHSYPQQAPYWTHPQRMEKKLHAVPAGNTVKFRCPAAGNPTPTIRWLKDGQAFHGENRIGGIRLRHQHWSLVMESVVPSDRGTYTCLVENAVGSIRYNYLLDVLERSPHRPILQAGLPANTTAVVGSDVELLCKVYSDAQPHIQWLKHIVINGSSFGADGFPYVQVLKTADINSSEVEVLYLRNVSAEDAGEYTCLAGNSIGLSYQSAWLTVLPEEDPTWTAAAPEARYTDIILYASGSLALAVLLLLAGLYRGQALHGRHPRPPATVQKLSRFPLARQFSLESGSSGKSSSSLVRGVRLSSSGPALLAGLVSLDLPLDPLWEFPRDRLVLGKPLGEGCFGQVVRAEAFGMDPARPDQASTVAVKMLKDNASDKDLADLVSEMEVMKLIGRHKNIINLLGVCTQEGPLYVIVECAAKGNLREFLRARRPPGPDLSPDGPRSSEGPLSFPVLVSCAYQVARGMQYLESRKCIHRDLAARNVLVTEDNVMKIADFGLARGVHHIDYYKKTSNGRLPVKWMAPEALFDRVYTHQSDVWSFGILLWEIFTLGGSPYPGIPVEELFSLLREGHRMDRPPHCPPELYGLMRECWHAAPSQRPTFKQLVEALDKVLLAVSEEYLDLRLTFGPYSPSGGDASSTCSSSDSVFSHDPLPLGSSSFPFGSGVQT
Description for BaF3: Antiproliferative activity against mouse BaF3 cells harbouring ETV6-FGFR4-N535K mutant measured after 24 to 48 hrs by MTT assay

On to `C=CC(=O)Nc1cc2c(cc1-c1n[nH]c3ccc(O[C@H](C)c4c(Cl)cncc4Cl)cc13)CCN(C)C2`, for which the inhibition result in data set [1] was “Active”. In addition, the Activity result in data set [2] was “Non-Toxic”; in [6] it was “Non-Toxic”; in data set [8], “Non-Toxic”; in data set [9] it was “Non-Toxic”; in [11] it was “Non-Toxic”; in the data set with Huh-7, 11.39%. Also, the half-life in data set [3] is 7 h. For the same molecule, the IC50 is 0.172 µM in the data set with BaF3; more than 3000 µM in data set [4]; more than 3 µM in data set [5]; 0.038 µM with Hep 3B2; more than 5 µM in the data set on HepG2. Also, the Tmax turned out to be 4.8 min in data set [7] and 1.67 h in [12]. In data set [10], the area under the curve AUC(0-t) was found to be 13 ng·h/mL.
